Experimental findings from ChEMBL document CHEMBL1139038, “Design and synthesis of 3-substituted benzamide derivatives as Bcr-Abl kinase inhibitors” (Bioorg Med Chem Lett, 2006) are described below.

The subject of one assay is U-937. The experiment in a line: Antiproliferative activity against U937 cells. To be noted: Homo sapiens. The class given is functional, cell-based.
The test system of another assay is K562. Nature of the assay: Antiproliferative activity against K562 cells. The class given is functional, cell-based. To be noted: Homo sapiens.

One may read the IC50 as the midpoint of a concentration-inhibition curve. In the assay on U-937, `Cc1ccc(NC(=O)c2ccc(CN3CCN(C)CC3)c(C(F)(F)F)c2)cc1Nc1nccc(-c2cccnc2)n1` came in with an IC50 of 4 µM.
On the same count and under the same terms, next, `Cc1ccc(NC(=O)c2ccc(CN3CCN(C)CC3)c(F)c2)cc1Nc1nccc(-c2cccnc2)n1`: 8 µM.
On to `Cc1ccc(NC(=O)c2ccc(CN3CC(N(C)C)C3)c(C(F)(F)F)c2)cc1Nc1nccc(-c2cncnc2)n1`, for which the IC50 in the assay on U-937 was > 100 µM; in the assay on K562, 0.017 µM.
The matching figures for `Cc1ccc(NC(=O)c2ccc(CN3CC[C@H](CN(C)C)C3)c(C(F)(F)F)c2)cc1Nc1nccc(-c2cncnc2)n1`: 20 µM and 0.011 µM.
The matching figures for `Cc1ccc(NC(=O)c2ccc(CN3CCN(C)CC3)c(I)c2)cc1Nc1nccc(-c2cccnc2)n1`: 6 µM and 0.01 µM.
The matching figures for `Cc1ccc(NC(=O)c2ccc(CN3CC[C@H](N(C)C)C3)c(C(F)(F)F)c2)cc1Nc1nccc(-c2cncnc2)n1` [BAFETINIB]: 10 µM and 0.011 µM.
On to `Cc1ccc(NC(=O)c2ccc(CN3CCN(C)CC3)cc2)cc1Nc1nccc(-c2cccnc2)n1` [IMATINIB], for which half-maximal inhibition in the assay with U-937 (IC50) required 14 µM.
Still for that read-out and setting: under `Cc1ccc(NC(=O)c2ccc(CN3CCN(C)CC3)c(C(F)(F)F)c2)cc1Nc1nccc(-c2cncnc2)n1` stands 5 µM; under `Cc1ccc(NC(=O)c2ccc(CN3CCN(C)CC3)c(Br)c2)cc1Nc1nccc(-c2cccnc2)n1`, 5 µM.
Consider `Cc1ccc(NC(=O)c2ccc(CN3CCN(C)CC3)c(Cl)c2)cc1Nc1nccc(-c2cccnc2)n1`, for which the IC50 with U-937 came out at 9 µM; in the assay with K562, 0.01 µM.
In the same order, the values of `Cc1ccc(NC(=O)c2ccc(CN3CC[C@@H](N(C)C)C3)c(C(F)(F)F)c2)cc1Nc1nccc(-c2cncnc2)n1` are 9 µM and 0.004 µM.
Consider `Cc1ccc(NC(=O)c2ccc(CN3CC[C@@H](CN(C)C)C3)c(C(F)(F)F)c2)cc1Nc1nccc(-c2cncnc2)n1`, for which the results for the IC50 in the assay with U-937 and with K562 were > 100 µM and 0.009 µM, respectively.
